In patent US4840941A, “Method for inhibiting infection of human T-cells” (Kabushiki Kaisha Ueno Seiyaku Oyo Kenkyujo, priority 1986, dated 1989):

Experiments:
[1] = tested on: reverse transcriptase (authentic sample) derived from Avian Myeloblastosis Virus; assay: Inhibition of reverse transcriptase activity (AMV); format: biochemical; details: AMV enzyme; 1, 0.1 and 0.01 μg/ml
Procedure: Test substances were assayed for inhibition against the enzyme activity of reverse transcriptase (authentic sample) derived from Avian Myeloblastosis Virus (abbrev. AMV), a kind of retrovirus. Five microliters of […] (template RNA), 4 μl of (dT)12-18 (primer DNA), and 1 μl of water were mixed with 5 μl of 0.5M Tris-CHl (pH 8.4) including 0.1% triton X-100, 5 μl of […], 5 μl of 20 mM-DDT, 5 μl of water, and [^3 H]-TTP (tritium labeled thymidine triphosphate). To this mixture, test substances in solutions (final concentrations: 1, 0.1, and 0.01 μg/ml, 5 μl) or buffer solutions (control, 5 μl) at various doses were added. Then, 5 μl (one unit) of the authentic reverse transcriptase derived from AMV was added and the reaction mixture was incubated at 37° C. for 30 minutes. The reaction was stopped by addition of trichloroacetic acid, and after filtering the reaction mixture, the radioactivity of the polymerized (^3 H-T)n retained on the filter was measured using a liquid scintillation counter. As the test substances, sodium dextran sulfate (molecular weight: 5000), same (molecular weight: 8000), same (molecular weight: 500000), fucoidin, κ-carrageenan, λ-carrageenan, and .iota.-carrageenan were used.
The effects of the test substances on the reverse transcriptase activity of AMV were evaluated by the method described in Example 1.

HTLV-III [2] = assay: Anti-AIDS activity, infected cell rate of MT-4 cells infected with HTLV-III at 6th day; format: cell-based; details: for anti-AIDS virus activity: MT-4 cells, HTLV-III
Procedure: (§1) To MT-4 cells (30×10^4 /ml) cultured in RPMI-1640 medium containing 10% bovine serum, was inoculated HTLV-III, and the suspension was incubated at 37° C. for 1 hour to cause the adsorption of the virus. The cell:virus ratio was 500:1. The cells were then washed, and cultured with or without various doses of the test substances (same as those of Example 1) at 37° C. under 5% CO2 for 3 days, after which cell growth, viability, and percentage of infected cells were recorded. The infected cells were distinguished from the uninfected cells by indirect immuno-fluorescence method. Thus; the cultured cells were fixed with cold methanol on a slide glass, reacted with antibody to the HTLV-III-specific antigens, and further with the secondary antibody (having fluorescent label). The results are shown in FIGS. 9-29, wherein, , and show the controls without virus; , and show the infection experiments with HTLV-III. The cell growth is indicated in number of cells, the viability (%) in number of viable cells×100/number of total cells, and the infected cell rate (%) in number of fluorescent-positive cells×100/number of total cells.
In order to examine the correlation between the anti-AIDS virus activity and the molecular structure (especially, molecular weight and S-content or number of sulfate group in this case) of various test substances including those used in Examples 1-7, the anti-AIDS activities were evaluated for the various naturally occurring polysaccharides, polysaccharides having sulfate group, mucopolysaccharides, mucopolysaccharide sulfate, and mucopolysaccharide polysulfate. Further, similar experiments were carried out with various other sulfates which were synthetically obtained. The experimental procedures employed are identical to that in preceding experiments. The cultured MT-4 cells were infected with HTLV-III and the inhibitory effects of various test subsutances on the infected cell rate (number of fluorescent cell×100/ total cell, %) were determined at 6th day.

[3] = tested on: reverse transciptase of simian sarcoma virus; details: in vitro; Cancer Research, 38, 2401-2407; cited from earlier work
[4] = tested on: DNA polymerase of phytohemagglutinin stimulated human lymphocytes; details: in vitro; Cancer Research, 38, 2401-2407; cited from earlier work
[5] = Acute toxicity (LD50) in mice; format: in vivo
HTLV-III [6] = assay: Anti-AIDS virus activity, MT-4 cells infected with HTLV-III, 3 days; format: cell-based; details: increasing dose
Procedure: as §1
Test substances were assayed for the anti-AIDS virus activity in the same manner as in Example 3 using cell culture. The test substances are the same as those used in Example 5. […]
The anti-AIDS virus activity of heparin was evaluated in the same manner as in Example 3. […]

[7] = tested on: disrupted HTLV-III virions as a crude reverse transcriptase; assay: Inhibition of reverse transcriptase activity (disrupted HTLV-III virions); format: biochemical; details: crude enzyme from HTLV-III virions
[8] = 10 μg/ml, 6th day, control 100%
[9] = 100 μg/ml, 6th day, control 100%

| Substance | reverse transcriptase inhibition activity [1] | Infected cell (%) (HTLV-III [2]; [8]) | Infected cell (%) (HTLV-III [2]; [9]) | anti-AIDS virus activity (HTLV-III [2]; 6th day) | inhibition of reverse transcriptase of simian sarcoma virus [3] | inhibition of DNA polymerase of phytohemagglutinin stimulated human lymphocytes [4] | acute toxicity (LD50) ([5]; intravenously) | cell growth and viability of MT-4 cells infected with HTLV-III (HTLV-III [6]) | infected cell rate (HTLV-III [6]; indirect immunofluorescence) | acute toxicity (LD50) ([5]; orally) | Infected cell (%) (HTLV-III [2]; 10 μg/ml, 6th day; control 100%; S-content 17-20), 8640 min) | reverse transcriptase inhibitory effect [7] |
| --- | --- | --- | --- | --- | --- | --- | --- | --- | --- | --- | --- | --- |
| Chondroitin polysulfate | stronger activity than the natural substances | 3 | 1 | particularly strong anti-AIDS virus activities | – | – | – | – | – | – | – | – |
| Heparin | – | 41 | 1 | particularly strong anti-AIDS virus activities | inhibit | inhibit | 1,500-2,000 mg/kg | the number of cells and viability were maintained to that of control | less susceptible to the viral infection | – | – | – |
| Sodium dextran sulfate [Sodium dextran sulfate (molecular weight: 7000-8000, S-conte] | – | – | 0 | – | – | – | 4,500 mg/kg | – | – | 21,000 mg/kg | 1 | has an inhibitory effect |
